Substitutions are numbered along the chain they refer to. Counter-ions that a name gives are not always drawn.
How the values were obtained:
[1] = molecular target: T1, MRGPRX2-WT (wild-type MRGPRX2 receptor) (Homo sapiens, UniProt Q96LB1); assay: Primary HTS, Ca2+ mobilization (fluorescence ratio, B-score) in HEK293-Gα15 cells stably expressing wild-type MRGPRX2; assay type: cell-based; settings: 10 μM compound
T1 construct: expressed in transfected cells
T1 sequence (Q96LB1 1-330): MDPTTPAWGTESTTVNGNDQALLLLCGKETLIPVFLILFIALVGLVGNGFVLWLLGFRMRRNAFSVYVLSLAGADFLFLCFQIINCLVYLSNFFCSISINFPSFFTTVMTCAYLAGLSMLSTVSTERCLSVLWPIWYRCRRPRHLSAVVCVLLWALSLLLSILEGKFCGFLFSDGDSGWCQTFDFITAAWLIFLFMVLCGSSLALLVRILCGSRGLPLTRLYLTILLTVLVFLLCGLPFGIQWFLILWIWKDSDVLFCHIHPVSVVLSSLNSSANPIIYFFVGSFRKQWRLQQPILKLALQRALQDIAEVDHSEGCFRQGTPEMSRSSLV
Procedure: (§1) We performed an experimental HTS on the Johns Hopkins Drug Library, which includes 1,811 (57%) FDA-approved drugs among 3,456 total compounds (28% of all known drugs worldwide) ([15]). We performed the HTS at the Johns Hopkins University ChemBioCORE Facility and employed HEK293-Gα15 cell lines that stably expressed MRGPRX2 protein.
(§2) We utilized 10 μM compounds (each compound was tested in triplicate) and calculated the compound effect using the signal-to-background fluorescence ratio (see Supplementary Methods).
(§3) In the HTS, we determined MRGPRX2 activation by a Ca^2+ mobilization assay that recorded a fluorescence change by utilizing a Functional Drug Screening System (FDSS 6000; Hamamatsu); we evaluated the compound effect using the calculated fluorescence ratio. We further applied the B-score normalization, which provided robust corrections for variation in fluorescence ratio ([22]).
(§4) We performed an experimental high-throughput screening (HTS) on the Johns Hopkins Drug Library (JHDL), which includes 1,811 (57%) FDA-approved drugs among 3,456 total compounds (28% of all known drugs worldwide). The remaining compounds in JHDL are catalogued in one or more of the resources below: British Approved Names (BAN); Dénominations Communes Françaises (DCF); International Nonproprietary Names (INN); Japanese Adopted Names (JAN); MI (Merck Index); National Formulary drug name (NF); and United States Accepted Names (USAN). The JHU drug library is stocked in 96 well plates at 10 mM in 100% DMSO and stored at -80 °C. We used a final concentration of 10 uM for each compound and DMSO concentration of 0.1% (tested in triplicate). […] We evaluated compound effect using the calculated fluorescence ratio. We further calculated B-scores, which are a relative potency score similar to Z scores in that they are the ratio of an adjusted raw value in the numerator to a measure of variability in the denominator.

[2] = molecular target: T2, MRGPRX2-MUT (MRGPRX2 N62S mutation) (Homo sapiens, UniProt Q96LB1, N62S); assay: Primary HTS, Ca2+ mobilization (fluorescence ratio, B-score) in HEK293-Gα15 cells stably expressing the MRGPRX2 N62S mutation; assay type: cell-based; settings: for B-scores (MUT): 10 μM compound, MRGPRX2-MUT (N62S) cells; for Change of B-scores (%): 10 μM
T2 construct: expressed in transfected cells
T2 sequence (Q96LB1 1-330 N62S): T1 sequence (Q96LB1 1-330) with N62S
Procedure: as §1, §2, §3, §4

[3] = MRGPRX2-MUT versus MRGPRX2-WT cells, Supplementary Table 2
[4] = MRGPRX2-MUT in comparison to MRGPRX2-WT cells, Supplementary Table 1
[5] = MRGPRX2-MUT in comparison to MRGPRX2-WT cells, Table 1
[6] = Supplementary Table 2, listed as Dextromethorphan (Delsym)

Compound | B-scores (WT) ([1]; Supplementary Table 2) | B-scores (MUT) ([2]; Supplementary Table 2) | Change of B-scores (%) [2, 3] | B-scores (WT) ([1]; Supplementary Table 1) | B-scores (WT) ([1]; Table 1) | B-scores (MUT) ([2]; Supplementary Table 1) | B-scores (MUT) ([2]; Table 1) | Change of B-scores (%) [2, 4] | Change of B-scores (%) [2, 5] | B-scores (WT) [1, 6] | B-scores (MUT) [2, 6] | Change of B-scores (%) ([2]; MRGPRX2-MUT versus MRGPRX2-WT cells, Supplementary Table 2, listed as Dextromethorphan (Delsym))
O=C(O)c1cn(C2CC2)c2cc(N3CCNCC3)c(F)cc2c1=O [Ciprofloxacin] | 7.33 | 1.91 | -74% | – | – | – | – | – | – | – | – | –
Cl.NC1CCN(c2c(F)cc3c(=O)c(C(=O)O)cn(C4CC4)c3c2Cl)C1 (centres unmarked) [Clinafoxacin Hydrochloride] | – | – | – | 26.08 | 26.08 | 0.92 | 0.92 | -96.48% | -96.48% | – | – | –
CN(C)CCCN1c2ccccc2CCc2ccc(Cl)cc21 [Clomipramine Hydrochloride] | 30.29 | 2.17 | -92.83% | 30.29 | 30.29 | 2.17 | 2.17 | -92.83% | -92.83% | – | – | –
C=C[C@@]1(C)CC(=O)[C@]2(O)[C@@]3(C)[C@@H](O)CCC(C)(C)[C@@H]3[C@H](O)[C@H](OC(C)=O)[C@@]2(C)O1 [Colforsin] | – | – | – | 21.10 | – | 0.76 | – | -96.40% | – | – | – | –
C[C@@H](Oc1cc(-c2cnn(C3CCNCC3)c2)cnc1N)c1c(Cl)ccc(F)c1Cl [Crizotinib] | – | – | – | 22.06 | 22.06 | – | -0.44 | -101.99% | -101.99% | – | – | –
CN(C)CCC=C1c2ccccc2C=Cc2ccccc21 [Cyclobenzaprine Hydrochloride] | 16.49 | 1.22 | -92.62% | – | – | – | – | – | – | – | – | –
CN1CCC(=C2c3ccccc3C=Cc3ccccc32)CC1 [Cyproheptadine Hydrochloride] | – | – | – | 41.66 | 41.66 | 2.29 | 2.29 | -94.50% | -94.50% | – | – | –
CO[C@@H](C(=O)N1Cc2n[nH]c(NC(=O)c3ccc(N4CCN(C)CC4)cc3)c2C1)c1ccccc1 [Danusertib] | – | – | – | 20.37 | 20.37 | 0.61 | 0.61 | -97.00% | -97.00% | – | – | –
COc1cccc2c1C(=O)c1c(O)c3c(c(O)c1C2=O)C[C@@](O)(C(C)=O)C[C@@H]3O[C@H]1C[C@H](N)[C@H](O)[C@H](C)O1 [Daunorubicin] | 8.85 | 37.13 | 319.41% | – | – | – | – | – | – | – | – | –
CNCCCN1c2ccccc2CCc2ccccc21 [Desipramine Hydrochloride] | 7.48 | -2.96 | -139.62% | – | – | – | – | – | – | – | – | –
CNCCCN1c2ccccc2CCc2ccccc21 [Desipramine] | 13.96 | 1.19 | -91.45% | – | – | – | – | – | – | – | – | –
CN(C)CC[C@@H](c1ccc(Cl)cc1)c1ccccn1 [Dexchlorpheniramine Maleate] | 24.82 | 0.56 | -97.76% | 24.82 | 24.82 | 0.56 | 0.56 | -97.76% | -97.76% | – | – | –
Br.COc1ccc2c(c1)[C@]13CCCC[C@@H]1[C@H](C2)N(C)CC3.O [Dextromethorphan Hydrobromide Monohydrate] | – | – | – | 23.02 | – | 54.88 | – | 138.39% | – | – | – | –
COc1ccc2c(c1)[C@]13CCCC[C@@H]1[C@H](C2)N(C)CC3 [Dextromethorphan hydrobromide] | 23.02 | 54.88 | 138.39% | 38.47 | – | 84.34 | – | 119.23% | – | 38.47 | 84.34 | 119.23%
CN1CC[C@@]23CCCC[C@@H]2[C@@H]1Cc1ccc(O)cc13 [Dextrorphan] | 31.94 | 68.33 | 113.94% | – | – | – | – | – | – | – | – | –
CN(C)CCN1C(=O)c2ccccc2N(C)c2ccccc21 [Dibenzepin] | – | – | – | 25.48 | 25.48 | – | -1.62 | -106.37% | -106.37% | – | – | –
CN1CCN(c2cc3c(cc2F)c(=O)c(C(=O)O)cn3-c2ccc(F)cc2)CC1 [Difloxacin Hydrochloride] | 44.81 | -1.54 | -103.45% | 44.81 | 44.81 | 1.54 | -1.54 | -103.45% | -103.45% | – | – | –
COc1ccc([C@@H]2Sc3ccccc3N(CCN(C)C)C(=O)[C@@H]2OC(C)=O)cc1 [Diltiazem Hydrochloride] | – | – | – | 22.99 | – | – | – | -104.18% | – | – | – | –
CCCCC[C@H](O)/C=C/[C@H]1[C@H](O)CC(=O)[C@@H]1C/C=C\CCCC(=O)O [Dinoprostone (Prostaglandin E2)] | – | – | – | 40.59 | – | 17.30 | – | -57.38% | – | – | – | –
CN(C)CCOC(c1ccccc1)c1ccccc1 [Diphenhydramine Hydrochloride] | 10.26 | 0.66 | -93.55% | – | – | – | – | – | – | – | – | –
CN(C)CCC=C1c2ccccc2COc2ccccc21 [Doxepin Hydrochloride] | 12.95 | 1.85 | -85.71% | – | – | – | – | – | – | – | – | –
CNCC[C@H](Oc1cccc2ccccc12)c1cccs1 [Duloxetine Hydrochloride] | – | – | – | 44.22 | – | 0.64 | – | -98.55% | – | – | – | –
CNC[C@H](O)c1ccc(O)c(O)c1 [Epinephrine Bitartrate] | 25.6 | 11.72 | -54.24% | 25.60 | – | 11.72 | – | -54.24% | – | – | – | –
CNC[C@H](O)c1ccc(O)c(O)c1 [Epinephrine] | 17.52 | 8.28 | -52.73% | – | – | – | – | – | – | – | – | –
CCCCC[C@H](O)/C=C/[C@@H]1[C@H]2C/C(=C/CCCC(=O)O)O[C@H]2C[C@H]1O [Epoprostenol] | – | – | – | 27.44 | – | 10.83 | – | -60.51% | – | – | – | –
CC(Cc1ccc(O)cc1)NCC(O)c1cc(O)cc(O)c1 (centres unmarked) [Fenoterol Hydrobromide] | 20.31 | -0.03 | -100.16% | 20.31 | – | – | – | -100.16% | – | – | – | –
CC(Cc1ccc(O)cc1)NCC(O)c1cc(O)cc(O)c1 (centres unmarked) [Fenoterol] | 23.48 | 13.78 | -41.33% | 23.48 | – | 13.78 | – | -41.33% | – | – | – | –

— publication PMC9635925, “Biological screening of a unique drug library targeting MRGPRX2” (Frontiers in Immunology, 2022)
